PubChem BioAssay (NCI)
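Dose response: 5 concentrations. Exposure: 48 h. Format: 96-well plates. Endpoint: linear interpolation; highest concentration if not reached. GI50 is the concentration that inhibits growth by half. TGI: total growth inhibition.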

How the values were obtained:
Assay in all cases: DTP human tumour cell line panel, 48 h
[1] = system: ACHN renal
[2] = system: SW-620 colon
[3] = system: NCI-H460 lung
[4] = system: UACC-62 melanoma
[5] = system: NCI-H226 lung
[6] = system: SK-MEL-28 melanoma
[7] = system: SF-268 CNS
[8] = system: CAKI-1 renal
[9] = system: HOP-62 NSCLC
[10] = system: HCT-116 colon
[11] = system: 786-0 renal
[12] = system: OVCAR-4 ovarian
[13] = system: HT29 colon
[14] = system: HCT-15 colon
[15] = system: HS 578T breast
[16] = system: K-562 leukemia
[17] = system: SF-295 CNS
[18] = system: SK-OV-3 ovarian
[19] = system: MDA-MB-231 breast
[20] = system: SF-539 CNS
[21] = system: MALME-3M melanoma
[22] = system: SN12C renal
[23] = system: OVCAR-8 ovarian
[24] = system: COLO 205 colon
[25] = system: BT-549 breast
[26] = system: A498 renal
[27] = system: SK-MEL-2 melanoma
[28] = system: T-47D breast
[29] = system: MCF7 breast
[30] = system: OVCAR-5 ovarian
[31] = system: IGROV1 ovarian
[32] = system: NCI/ADR-RES ovarian
[33] = system: MDA-MB-435
[34] = system: HCC-2998 colon
[35] = system: PC-3 prostate
[36] = system: MOLT-4 leukemia
[37] = system: NCI-H23 lung
[38] = system: CCRF-CEM leukemia
[39] = system: TK-10 renal
[40] = system: DU-145 prostate
[41] = system: OVCAR-3 ovarian
[42] = system: RXF 393 renal
[43] = system: SK-MEL-5 melanoma
[44] = system: KM12 colon
[45] = system: SNB-75 CNS
[46] = system: A549 NSCLC
[47] = system: M14 melanoma
[48] = system: RPMI-8226 leukemia
[49] = system: SR leukemia
[50] = system: LOX IMVI melanoma
[51] = system: U251 CNS
[52] = system: HOP-92 NSCLC
[53] = system: SNB-19 CNS
[54] = system: NCI-H522 lung

`COc1ccc2ccc3oc([N+](=O)[O-])cc3c2c1` showed a GI50 [1] of 40.2 nM, a TGI [1] of 1440 nM and a GI50 [2] of 236 nM. For the same molecule, the TGI [2] was 2140 nM, the GI50 [3] was 114 nM and the TGI [3] was 405 nM. For the same molecule, the GI50 [4] was 157 nM, the TGI [4] was 355 nM and the GI50 [5] was 296 nM. It also gave a TGI [5] of 3.22 µM, a GI50 [6] of 202 nM and a TGI [6] of 540 nM. It also gave a GI50 [7] of 201 nM, a TGI [7] of 1690 nM and a GI50 [8] of 186 nM. It also gave a TGI [8] of 514 nM, a GI50 [9] of 1030 nM and a TGI [9] of 6.34 µM. For the same molecule, the GI50 [10] was 189 nM, the TGI [10] was 1210 nM and the GI50 [11] was 316 nM. It also gave a TGI [11] of 1100 nM, a GI50 [12] of 828 nM and a TGI [12] of 5.41 µM. It also gave a GI50 [13] of 202 nM, a TGI [13] of 1890 nM and a GI50 [14] of 218 nM. For the same molecule, the TGI [14] was 1270 nM, the GI50 [15] was 297 nM and the TGI [15] was 1440 nM. It also gave a GI50 [16] of 259 nM, a TGI [16] greater than 100 µM and a GI50 [17] of 251 nM. For the same molecule, the TGI [17] was 3.22 µM, the GI50 [18] was 206 nM and the TGI [18] was 894 nM. It also gave a GI50 [19] of 208 nM, a TGI [19] of 723 nM and a GI50 [20] of 275 nM. It also gave a TGI [20] of 1070 nM, a GI50 [21] of 187 nM and a TGI [21] of 393 nM. It also gave a GI50 [22] of 311 nM, a TGI [22] of 5.32 µM and a GI50 [23] of 216 nM. It also gave a TGI [23] of 3.27 µM, a GI50 [24] of 157 nM and a TGI [24] of 432 nM. It also gave a GI50 [25] of 194 nM, a TGI [25] of 606 nM and a GI50 [26] of 126 nM. The TGI [26] was 301 nM, the GI50 [27] was 242 nM and the TGI [27] was 509 nM. For the same molecule, the GI50 [28] was 1830 nM, the TGI [28] was greater than 100 µM and the GI50 [29] was 226 nM. The TGI [29] was 2340 nM, the GI50 [30] was 386 nM and the TGI [30] was 7.68 µM. The GI50 [31] was 246 nM, the TGI [31] was 877 nM and the GI50 [32] was 251 nM. The TGI [32] was 2220 nM, the GI50 [33] was 116 nM and the TGI [33] was 247 nM. It also gave a GI50 [34] of 171 nM, a TGI [34] of 416 nM and a GI50 [35] of 1080 nM. It also gave a TGI [35] of 7.9 µM, a GI50 [36] of 74.5 nM and a TGI [36] greater than 100 µM. It also gave a GI50 [37] of 198 nM, a TGI [37] of 572 nM and a GI50 [38] of 193 nM. The TGI [38] was 10.6 µM, the GI50 [39] was 560 nM and the TGI [39] was 6.52 µM. It also gave a GI50 [40] of 123 nM, a TGI [40] of 2140 nM and a GI50 [41] of 255 nM. It also gave a TGI [41] of 754 nM, a GI50 [42] of 141 nM and a TGI [42] of 316 nM. The GI50 [43] was 104 nM, the TGI [43] was 228 nM and the GI50 [44] was 417 nM. For the same molecule, the TGI [44] was 2090 nM, the GI50 [45] was 166 nM and the TGI [45] was 527 nM. The GI50 [46] was 197 nM, the TGI [46] was 543 nM and the GI50 [47] was 115 nM. It also gave a TGI [47] of 307 nM, a GI50 [48] of 333 nM and a TGI [48] of 5.92 µM. For the same molecule, the GI50 [49] was 82.7 nM, the TGI [49] was 11.7 µM and the GI50 [50] was 55.7 nM. It also gave a TGI [50] of 355 nM, a GI50 [51] of 277 nM and a TGI [51] of 5.37 µM. For the same molecule, the GI50 [52] was 155 nM, the TGI [52] was 506 nM and the GI50 [53] was 281 nM. For the same molecule, the TGI [53] was greater than 100 µM, the GI50 [54] was 169 nM and the TGI [54] was 563 nM.
